SMILES strings stand for the structures.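 Step 1: Grow cells in 96-well plates. Step 2: Expose to compound for 48 hours at 5 concentrations. Step 3: Interpolate endpoints linearly; if unreached, use highest concentration. GI50: concentration for 50% inhibition of growth. TGI: concentration producing complete growth inhibition.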

Test systems include A498 renal; HOP-62 NSCLC; M14 melanoma; MALME-3M melanoma; MDA-MB-435; MOLT-4 leukemia; SF-539 CNS; SNB-19 CNS; SNB-75 CNS; UACC-62 melanoma.
Assay in all cases: NCI-60 cell line screen, 48 h

For the compound `S=C1SCN(Cc2ccccc2)CN1Cc1ccccc1`, the GI50 in the experiment on A498 renal was 15.5 µM; in the experiment with HOP-62 NSCLC, 55.6 µM; in the experiment with M14 melanoma, 6.5 µM; in the experiment on MALME-3M melanoma, 8.75 µM; in the experiment with MDA-MB-435, 2.35 µM; with MOLT-4 leukemia, 1.44 µM. Besides, the GI50 with SF-539 CNS was 17.2 µM; with SNB-19 CNS, above 54.7 µM; in the experiment with SNB-75 CNS, 15.4 µM; in the experiment on UACC-62 melanoma it was 5.05 µM. Further, the TGI with A498 renal is 43.6 µM; in the experiment on HOP-62 NSCLC, above 100 µM; in the experiment with M14 melanoma, 27.8 µM; in the experiment with MALME-3M melanoma, 26.7 µM; in the experiment on MDA-MB-435, 7.16 µM; in the experiment on MOLT-4 leukemia, 5.14 µM. Also, the TGI was above 61.3 µM in the experiment with SF-539 CNS, above 100 µM in the experiment on SNB-19 CNS, above 48.1 µM in the experiment with SNB-75 CNS and 16.9 µM in the experiment on UACC-62 melanoma.
Consider `CCc1[nH]nc(C(N)=O)c1N=NN(C)C`, for which the TGI in the experiment with A498 renal is above 100 µM; in the experiment on HOP-62 NSCLC, above 100 µM; in the experiment on M14 melanoma, above 100 µM; with MALME-3M melanoma, above 100 µM; in the experiment with MDA-MB-435, above 100 µM; in the experiment on MOLT-4 leukemia, 41.6 µM. Besides, the TGI with SF-539 CNS, with SNB-19 CNS, with SNB-75 CNS and with UACC-62 melanoma was above 100 µM each time.
`CCOC(=O)Nc1ccc2c(c1)C(=O)N(CC)c1ccccc1O2`: the GI50 with A498 renal is 0.0786 µM; in the experiment with HOP-62 NSCLC, 0.128 µM; in the experiment on M14 melanoma it was 0.0617 µM; in the experiment on MALME-3M melanoma, 31.8 µM; with MDA-MB-435, 0.0311 µM; in the experiment with MOLT-4 leukemia it was 0.125 µM. Also, the GI50 with SF-539 CNS is 0.0942 µM; with SNB-19 CNS it was 0.268 µM; in the experiment on SNB-75 CNS it was 0.188 µM; in the experiment on UACC-62 melanoma, 0.101 µM. Also, the TGI in the experiment with A498 renal is 11.8 µM; with HOP-62 NSCLC, above 100 µM; in the experiment with M14 melanoma, above 100 µM; in the experiment on MALME-3M melanoma, above 100 µM; with MDA-MB-435, 0.11 µM; with MOLT-4 leukemia, above 100 µM. The TGI is 0.643 µM in the experiment on SF-539 CNS, above 100 µM with SNB-19 CNS, above 100 µM in the experiment on SNB-75 CNS and above 100 µM in the experiment with UACC-62 melanoma.
For the compound `O=C(Nc1ccccc1Cl)c1ccc(NC2=C(Cl)C(=O)N(C3CCCCC3)C2=O)cc1`, the GI50 in the experiment on A498 renal is 40.6 µM; in the experiment on HOP-62 NSCLC, 8.37 µM; in the experiment on M14 melanoma, 11.7 µM; in the experiment on MALME-3M melanoma, 20.5 µM; in the experiment on MDA-MB-435, 9.61 µM; with MOLT-4 leukemia, 5.56 µM. Further, the GI50 with SF-539 CNS was 27.3 µM; with SNB-19 CNS it was 16.9 µM; with SNB-75 CNS, 8.64 µM; in the experiment on UACC-62 melanoma, 6.78 µM. Moreover, the TGI in the experiment with A498 renal came to 157 µM; in the experiment with HOP-62 NSCLC, 29.3 µM; in the experiment on M14 melanoma, 42.1 µM; with MALME-3M melanoma, 51.2 µM; in the experiment on MDA-MB-435, 44.1 µM; with MOLT-4 leukemia it was 20.4 µM. Further, the TGI in the experiment with SF-539 CNS amounted to 58.5 µM; in the experiment on SNB-19 CNS, 38.5 µM; in the experiment on SNB-75 CNS, 34.4 µM; in the experiment on UACC-62 melanoma, 26.5 µM.
With `O=C1c2ccccc2C(=O)c2c1oc1c2c(=O)[nH]c2ccc(Cl)cc21`, the GI50 was 0.214 µM in the experiment with A498 renal; 0.202 µM in the experiment on HOP-62 NSCLC; 0.397 µM in the experiment with M14 melanoma; 0.226 µM in the experiment on MALME-3M melanoma; 0.297 µM in the experiment with MDA-MB-435; 0.435 µM in the experiment with MOLT-4 leukemia. The GI50 with SF-539 CNS was 0.229 µM; with SNB-19 CNS, 0.312 µM; in the experiment on SNB-75 CNS, 0.16 µM; with UACC-62 melanoma, 0.285 µM. In addition, the TGI in the experiment with A498 renal was determined as 0.959 µM; in the experiment on HOP-62 NSCLC, 0.643 µM; with M14 melanoma, 1.53 µM; with MALME-3M melanoma it was 0.441 µM; in the experiment on MDA-MB-435, 1.19 µM; with MOLT-4 leukemia, 3.14 µM. Further, the TGI with SF-539 CNS is 0.566 µM; with SNB-19 CNS it was 1.1 µM; with SNB-75 CNS, 0.418 µM; in the experiment on UACC-62 melanoma it was 1.15 µM.
Consider `CCN(CC)CCn1c(=O)c2cc(OC)c(OC)cc2c2ccc3cc4c(cc3c21)OCO4`, for which the GI50 is 0.15 µM in the experiment on A498 renal; 0.246 µM in the experiment on HOP-62 NSCLC; 0.278 µM in the experiment on M14 melanoma; 0.354 µM in the experiment on MALME-3M melanoma; 0.795 µM in the experiment on MDA-MB-435; 0.0715 µM in the experiment on MOLT-4 leukemia. Besides, the GI50 with SF-539 CNS was 0.253 µM; in the experiment on SNB-19 CNS, 0.367 µM; in the experiment with SNB-75 CNS, 0.305 µM; with UACC-62 melanoma, 0.163 µM. For the same compound, the TGI came to 0.655 µM in the experiment on A498 renal; 13.8 µM in the experiment with HOP-62 NSCLC; 12.7 µM in the experiment with M14 melanoma; 14.5 µM with MALME-3M melanoma; 20.9 µM with MDA-MB-435; 3.72 µM in the experiment on MOLT-4 leukemia. The TGI with SF-539 CNS was determined as 0.818 µM; in the experiment on SNB-19 CNS it was 27.2 µM; in the experiment with SNB-75 CNS, 15.4 µM; with UACC-62 melanoma, 14.8 µM.
On to `CCOC(=O)c1c2c(n3ccc(NC(=O)CCN4CCCCC4)cc13)C(=O)c1ncccc1C2=O`, for which the GI50 with A498 renal is 0.806 µM; with HOP-62 NSCLC, 0.0229 µM; in the experiment on M14 melanoma, 0.17 µM; in the experiment on MALME-3M melanoma it was 1.16 µM; in the experiment with MDA-MB-435, 1.16 µM; in the experiment with MOLT-4 leukemia it was 1.42 µM. Further, the GI50 in the experiment with SF-539 CNS is 0.292 µM; in the experiment on SNB-19 CNS, 1.06 µM; in the experiment on SNB-75 CNS it was 0.506 µM; in the experiment on UACC-62 melanoma, 0.281 µM. The TGI in the experiment on A498 renal was determined as 29 µM; in the experiment on HOP-62 NSCLC, 1.83 µM; with M14 melanoma, 1.76 µM; in the experiment with MALME-3M melanoma, 2.73 µM; in the experiment on MDA-MB-435, 2.47 µM; in the experiment on MOLT-4 leukemia, 4.04 µM. Besides, the TGI in the experiment with SF-539 CNS is 2 µM; in the experiment with SNB-19 CNS, 3.21 µM; in the experiment on SNB-75 CNS, 5.98 µM; with UACC-62 melanoma, 2.65 µM.
In the case of `COc1cc(NS(C)(=O)=O)ccc1Cc1c2ccccc2nc2ccccc12`, the GI50 is 0.135 µM in the experiment on A498 renal; 0.059 µM in the experiment with HOP-62 NSCLC; 0.158 µM in the experiment on M14 melanoma; 0.192 µM in the experiment with MALME-3M melanoma; 1.23 µM in the experiment on MDA-MB-435; 0.118 µM with SF-539 CNS. Moreover, the GI50 in the experiment on SNB-19 CNS is 0.134 µM; in the experiment on SNB-75 CNS it was 0.188 µM; in the experiment with UACC-62 melanoma, 0.101 µM. The TGI was determined as 1.15 µM in the experiment with A498 renal; 0.368 µM in the experiment on HOP-62 NSCLC; 1.43 µM in the experiment with M14 melanoma; 1.65 µM in the experiment on MALME-3M melanoma; 11.3 µM in the experiment with MDA-MB-435; 0.0265 µM in the experiment on MOLT-4 leukemia. For the same compound, the TGI in the experiment with SF-539 CNS is 1.15 µM; in the experiment with SNB-19 CNS it was 3.35 µM; in the experiment with SNB-75 CNS it was 1.54 µM; in the experiment on UACC-62 melanoma, 1.67 µM.

These data come from PubChem BioAssay (NCI).
